In this test the target is recombinant human GST-Syk (Homo sapiens (Human), UniProt P43405). In words: Homogeneous Time-Resolved Fluorescence (HTRF) assay for the recombinant human Syk enzyme. To be noted: recombinant human GST-Syk 5 pM, ATP 25 μM, read-out: rhSyk IC50. The format is biochemical. As to the method:
Syk inhibition may be determined using the following assay protocol: Homogeneous Time-Resolved Fluorescence (HTRF) Assay for the Recombinant Human Syk Enzyme: A recombinant GST-hSyk fusion protein was used to measure potency of compounds to inhibit human Syk activity. […] To initiate the reaction the biotinylated substrate peptide (250 nM final concentration) that contains the phosphorylation site for Syk was added with magnesium (5 mM final concentration) and ATP (25 μM final concentration). […] Final volume of the quenching solution was 10 μL.
The term IC50 denotes the concentration that inhibits the measured activity by half. Regarding `Cc1cc(Nc2cc(C(F)(F)F)ccn2)nc(-c2ccc(C(C)(O)[C@H]3CC[C@H](C(=O)O)CC3)nc2)c1` (single isomer, unassigned) [Example 1, trans-4-((1R or 1S)-1-Hydroxy-1-(4-methyl-6-(4-(trifluoromethyl)pyridin-2-ylamino)-2,3′-bipyridin-6′-yl)ethyl)cyclohexanecarboxylic acid], the IC50 is under 0.5 nM.
In the case of `COC(=O)C1CCC(O)(c2ccc(-c3cc(C)cc(Nc4cc(C(F)(F)F)ccn4)n3)cn2)CC1(C)C` (single isomer, unassigned) [Example 1-6], the IC50 came to 405 nM.
The result for `COC(=O)C1CCC(O)(c2ccc(-c3cc(C)cc(Nc4cc(C(F)(F)F)ccn4)n3)cn2)CC1(C)C` (single isomer, unassigned) [Example 1-7] reads 245 nM.
As for `COC(=O)C1CCC(O)(c2ccc(-c3cc(C)cc(Nc4cc(C(F)(F)F)ccn4)n3)cn2)CC1(C)C` (single isomer, unassigned) [Example 1-9], the figure is 100 nM; as for `Cc1cc(Nc2cc(C(F)(F)F)ccn2)nc(-c2ccc(NC3CCC(C(=O)O)C(C)C3)nc2)c1` (single isomer, unassigned) [Example 3-2], under 0.5 nM; as for `Cc1cc(Nc2cc(C(F)(F)F)ccn2)nc(-c2ccc(NC3CCC(C(=O)O)C(C)C3)nc2)c1` (single isomer, unassigned) [Example 3-3], 1 nM.
The result for `Cc1cc(Nc2cc(C(F)(F)F)ccn2)nc(-c2ccc(NC3CCC(C(=O)O)C(C)(C)C3)nc2)c1` (single isomer, unassigned) [Example 3-4] reads under 0.5 nM; that for `Cc1cc(Nc2cc(C(F)(F)F)ccn2)nc(-c2ccc(NC3CCC(C(=O)O)C(C)(C)C3)nc2)c1` (single isomer, unassigned) [Example 3-5], 2 nM; that for `Cc1cc(Nc2cc(C(F)(F)F)ccn2)nc(-c2ccc([C@]3(O)CC[C@H](C(N)=O)C(C)(C)C3)nc2)c1` (single isomer, unassigned) [Example 8, (1S,4S or 1R,4R)-4-Hydroxy-2,2-dimethyl-4-(4-methyl-6-{[4-(trifluoromethyl)pyridin-2-yl]amino}-2,3′-bipyridin-6′-yl)cyclohexanecarboxamide], 23 nM.
Take `COC(=O)[C@H]1CC[C@H](C(C)(O)c2ccc(-c3cc(C)cc(Nc4cc(C(F)F)ccn4)n3)cn2)CC1` (single isomer, unassigned) [Example 11, Methyl trans-4-[(1R or 1S)-(6-{[4-(difluoromethyl)pyridin-2-yl]amino}-4-methyl-2,3′-bipyridin-6′-yl)-1-hydroxyethyl]cyclohexanecarboxylate]: the IC50 was determined as 9 nM.
As for `Cc1cc(Nc2cc(C(F)F)ccn2)nc(-c2ccc(C(C)(O)[C@H]3CC[C@H](C(=O)O)CC3)nc2)c1` (single isomer, unassigned) [Example 12, trans-4-[(1R or 1S)-(6-{[4-(Difluoromethyl)pyridin-2-yl]amino}-4-methyl-2,3′-bipyridin-6′-yl)-1-hydroxyethyl]cyclohexanecarboxylic acid], the figure is under 0.5 nM.
With `Cc1cc(Nc2cc(C(F)F)ccn2)nc(-c2ccc(C(C)(O)C3CCC(C(=O)O)CC3)nc2)c1` (single isomer, unassigned) [Example 12-1, trans-4-[(1R or 1S)-(6-{[4-(difluoromethyl)pyridin-2-yl]amino}-4-methyl-2,3′-bipyridin-6′-yl)-1-hydroxyethyl]cyclohexanecarboxylic acid], the IC50 was 1 nM.
As for `Cc1cc(Nc2cc(C(F)F)ccn2)nc(-c2ccc(C(C)(O)[C@H]3CC[C@@H](C(=O)O)CC3)nc2)c1` (single isomer, unassigned) [Example 12-2, cis-4-[(1R or 1S)-(6-{[4-(difluoromethyl)pyridin-2-yl]amino}-4-methyl-2,3′-bipyridin-6′-yl)-1-hydroxyethyl]cyclohexanecarboxylic acid], the figure is under 0.5 nM; as for `Cc1cc(Nc2cc(C(F)F)ccn2)nc(-c2ccc(C(C)(O)[C@H]3CC[C@@H](C(=O)O)CC3)nc2)c1` (single isomer, unassigned) [Example 12-3, cis-4-[(1R or 1S)-(6-{[4-(difluoromethyl)pyridin-2-yl]amino}-4-methyl-2,3′-bipyridin-6′-yl)-1-hydroxyethyl]cyclohexanecarboxylic acid], 1 nM; as for `Cc1cc(Nc2cc(C(F)F)ccn2)nc(-c2ccc(C(C)(F)[C@H]3CC[C@H](C(=O)O)CC3)nc2)c1` (single isomer, unassigned) [Example 13, trans-4-(1R or 1S)-(6-(4-(Difluoromethyl)pyridin-2-ylamino)-4-methyl-2,3′-bipyridin-6′-yl)-1-fluoroethyl)cyclohexanecarboxylic acid], under 0.5 nM.
As for `Cc1cc(Nc2cc(C(F)(F)F)ccn2)nc(-c2ccc(C(C)[C@H]3CC[C@H](C(=O)O)CC3)nc2)c1` (single isomer, unassigned) [Example 14, trans-4-[(1R or 1S)-(4-Methyl-6-{[4-(trifluoromethyl)pyridin-2-yl]amino}-2,3′-bipyridin-6′-yl)ethyl]cyclohexanecarboxylic acid], the figure is under 0.5 nM; as for `Cc1cc(Nc2cc(C(F)F)ccn2)nc(-c2ccc(C(C)(O)[C@H]3CC[C@H](C(=O)O)CC3)nc2)c1Br` (single isomer, unassigned) [Example 15, trans-4-((1R or 1S)-(3-Bromo-6-(4-(difluoromethyl)pyridin-2-ylamino)-4-methyl-2,3′-bipyridin-6′-yl)-1-hydroxyethyl)cyclohexanecarboxylic acid], 1 nM.
As for `Cc1cc(Nc2cc(C(F)F)ccn2)nc(-c2ccc(C(C)(O)[C@H]3CC[C@H](C(=O)O)CC3)nc2)c1` (single isomer, unassigned) [Example 16, Sodium trans-4-[(1R or 1S)-1-(6-{[4-(difluoromethyl)pyridin-2-yl]amino}-4-methyl-2,3′-bipyridin-6′-yl)-1-hydroxyethyl]cyclohexanecarboxylate], the figure is under 0.5 nM.
For `Cc1cc(Nc2cc(C(F)F)ccn2)nc(-c2ccc(C(C)(O)[C@H]3CC[C@H](C(=O)OCCO)CC3)nc2)c1` (single isomer, unassigned) [Example 18, 2-Hydroxyethyl trans-4-[(1R or 1S)-1-(6-{[4-(difluoromethyl)pyridin-2-yl]amino}-4-methyl-2,3′-bipyridin-6′-yl)-1-hydroxyethyl]cyclohexanecarboxylate], the IC50 worked out at 3.4 nM.
The result for `Cc1cc(Nc2cc(C(F)F)ccn2)nc(-c2ccc(C(C)(O)[C@H]3CC[C@H](C(=O)OCc4ccccc4)CC3)nc2)c1` (single isomer, unassigned) [Example 19-1, benzyl trans-4-[(1R or 1S)-1-(6-{[4-(difluoromethyl)pyridin-2-yl]amino}-4-methyl-2,3′-bipyridin-6′-yl)-1-hydroxyethyl] cyclohexanecarboxylate] reads 35 nM.
The result for `CCCOC(=O)[C@H]1CC[C@H](C(C)(O)c2ccc(-c3cc(C)cc(Nc4cc(C(F)F)ccn4)n3)cn2)CC1` (single isomer, unassigned) [Example 19-2, propyl trans-4-[(1R or 1S)-1-(6-{[4-(difluoromethyl)pyridin-2-yl]amino}-4-methyl-2,3′-bipyridin-6′-yl)-1-hydroxyethyl] cyclohexanecarboxylate] reads 32 nM; that for `Cc1cc(Nc2cc(C(F)F)ccn2)nc(-c2ccc(C(C)(O)[C@H]3CC[C@H](C(=O)OC(C)C)CC3)nc2)c1` (single isomer, unassigned) [Example 19-3, propan-2-yl trans-4-[(1R or 1S)-1-(6-{[4-(difluoromethyl)pyridin-2-yl]amino}-4-methyl-2,3′-bipyridin-6′-yl)-1-hydroxyethyl] cyclohexanecarboxylate], 50 nM.
The result for `CCCCOC(=O)[C@H]1CC[C@H](C(C)(O)c2ccc(-c3cc(C)cc(Nc4cc(C(F)F)ccn4)n3)cn2)CC1` (single isomer, unassigned) [Example 19-4, butyl trans-4-[(1R or 1S)-1-(6-{[4-(difluoromethyl)pyridin-2-yl]amino}-4-methyl-2,3′-bipyridin-6′-yl)-1-hydroxyethyl] cyclohexanecarboxylate] reads 65 nM.
For `CCC(C)OC(=O)[C@H]1CC[C@H](C(C)(O)c2ccc(-c3cc(C)cc(Nc4cc(C(F)F)ccn4)n3)cn2)CC1` (single isomer, unassigned) [Example 19-5, butan-2-yl trans-4-[(1R or 1S)-1-(6-{[4-(difluoromethyl)pyridin-2-yl]amino}-4-methyl-2,3′-bipyridin-6′-yl)-1-hydroxyethyl] cyclohexanecarboxylate], the IC50 worked out at 7 nM.
As for `Cc1cc(Nc2cc(C(F)F)ccn2)nc(-c2ccc(C(C)(O)[C@H]3CC[C@H](C(=O)OCC(C)C)CC3)nc2)c1` (single isomer, unassigned) [Example 19-6, 2-methylpropyl trans-4-[(1R or 1S)-1-(6-{[4-(difluoromethyl)pyridin-2-yl]amino}-4-methyl-2,3′-bipyridin-6′-yl)-1-hydroxyethyl] cyclohexanecarboxylate], the figure is 74 nM; as for `CCCCCOC(=O)[C@H]1CC[C@H](C(C)(O)c2ccc(-c3cc(C)cc(Nc4cc(C(F)F)ccn4)n3)cn2)CC1` (single isomer, unassigned) [Example 19-7, pentyl trans-4-[(1R or 1S)-1-(6-{[4-(difluoromethyl)pyridin-2-yl]amino}-4-methyl-2,3′-bipyridin-6′-yl)-1-hydroxyethyl] cyclohexanecarboxylate], 100 nM.
With `Cc1cc(Nc2cc(C(F)F)ccn2)nc(-c2ccc(C(C)(O)[C@H]3CC[C@H](C(=O)OCC(C)(C)C)CC3)nc2)c1` (single isomer, unassigned) [Example 19-8, 2,2-dimethylpropyl trans-4-[(1R or 1S)-1-(6-{[4-(difluoromethyl)pyridin-2-yl]amino}-4-methyl-2,3′-bipyridin-6′-yl)-1-hydroxyethyl] cyclohexanecarboxylate], the IC50 amounted to 150 nM.

The record behind these values is patent US9145391B2, “Bipyridylaminopyridines as Syk inhibitors” (Merck Sharp & Dohme Corp., priority 2011, dated 2015).
